ChEMBL document CHEMBL2346657, “Synthesis of novel 2-amino-4-(5'-substituted 2'-phenyl-1H-indol-3'-yl)-6-aryl-4H-pyran-3-carbonitrile derivatives as antimicrobial and antioxidant agents” (2013)
Active and inactive are the calls of the source. How the calls were made is not given here.

Tested on: Aspergillus niger
Experiment: Antimicrobial activity against Aspergillus niger MTCC 281 at 500 ug/ml after 72 hrs by cup plate method
Type: functional
Conditions: MTCC 281, 72 h, read-out: IZ

| Structure (SMILES) | zone of inhibition at 500 µg/mL [mm] |
| --- | --- |
| Cc1ccc2[nH]c(-c3ccccc3)c(C3C=C(c4ccc(Cl)cc4)Oc4nc[nH]c(=O)c43)c2c1 (stereo not given) | 10 |

Tested on: not listed separately
Experiment: Antioxidant activity assessed as metal chelating activity by measuring inhibition of ferrozine-Fe2+ complex formation at 25 to 100 ug/ml
Type: functional
Conditions: not given

| Structure (SMILES) | Activity |
| --- | --- |
| Cc1ccc2[nH]c(-c3ccccc3)c(C3C=C(c4ccc(Cl)cc4)Oc4nc[nH]c(=O)c43)c2c1 (stereo not given) | Active |

Tested on: Escherichia coli
Experiment: Antimicrobial activity against Escherichia coli MTCC 723 at 750 ug/ml after 24 hrs by cup plate method
Type: functional
Conditions: MTCC 723, 24 h, read-out: IZ

| Structure (SMILES) | zone of inhibition at 750 µg/mL [mm] |
| --- | --- |
| Cc1ccc2[nH]c(-c3ccccc3)c(C3C=C(c4ccc(Cl)cc4)Oc4nc[nH]c(=O)c43)c2c1 (stereo not given) | 8 |

Tested on: Aspergillus flavus
Experiment: Antimicrobial activity against Aspergillus flavus MTCC 1973 at 1000 ug/ml after 72 hrs by cup plate method
Type: functional
Conditions: MTCC 1973, 72 h, read-out: IZ

| Structure (SMILES) | zone of inhibition at 1000 µg/mL [mm] |
| --- | --- |
| Cc1ccc2[nH]c(-c3ccccc3)c(C3C=C(c4ccc(Cl)cc4)Oc4nc[nH]c(=O)c43)c2c1 (stereo not given) | 5 |

Tested on: Aspergillus terreus
Experiment: Antimicrobial activity against Aspergillus terreus MTCC 1782 at 750 ug/ml after 72 hrs by cup plate method
Type: functional
Conditions: MTCC 1782, 72 h, read-out: IZ

| Structure (SMILES) | zone of inhibition at 750 µg/mL [mm] |
| --- | --- |
| Cc1ccc2[nH]c(-c3ccccc3)c(C3C=C(c4ccc(Cl)cc4)Oc4nc[nH]c(=O)c43)c2c1 (stereo not given) | 6 |

Tested on: Klebsiella pneumoniae
Experiment: Antimicrobial activity against Klebsiella pneumoniae NCTC 13368 at 750 ug/ml after 24 hrs by cup plate method
Type: functional
Conditions: NCTC 13368, 24 h, read-out: IZ

| Structure (SMILES) | zone of inhibition at 750 µg/mL [mm] |
| --- | --- |
| Cc1ccc2[nH]c(-c3ccccc3)c(C3C=C(c4ccc(Cl)cc4)Oc4nc[nH]c(=O)c43)c2c1 (stereo not given) | 5 |

Tested on: Aspergillus niger
Experiment: Antimicrobial activity against Aspergillus niger MTCC 281 at 1000 ug/ml after 72 hrs by cup plate method
Type: functional
Conditions: MTCC 281, 72 h, read-out: IZ

| Structure (SMILES) | zone of inhibition at 1000 µg/mL [mm] |
| --- | --- |
| Cc1ccc2[nH]c(-c3ccccc3)c(C3C=C(c4ccc(Cl)cc4)Oc4nc[nH]c(=O)c43)c2c1 (stereo not given) | 11 |

Tested on: Staphylococcus aureus
Experiment: Antimicrobial activity against Staphylococcus aureus ATCC 29513 at 750 ug/ml after 24 hrs by cup plate method
Type: functional
Conditions: ATCC 29513, 24 h, read-out: IZ

| Structure (SMILES) | zone of inhibition at 750 µg/mL [mm] |
| --- | --- |
| Cc1ccc2[nH]c(-c3ccccc3)c(C3C=C(c4ccc(Cl)cc4)Oc4nc[nH]c(=O)c43)c2c1 (stereo not given) | 10 |

Tested on: Aspergillus niger
Experiment: Antimicrobial activity against Aspergillus niger MTCC 281 at 750 ug/ml after 72 hrs by cup plate method
Type: functional
Conditions: MTCC 281, 72 h, read-out: IZ

| Structure (SMILES) | zone of inhibition at 750 µg/mL [mm] |
| --- | --- |
| Cc1ccc2[nH]c(-c3ccccc3)c(C3C=C(c4ccc(Cl)cc4)Oc4nc[nH]c(=O)c43)c2c1 (stereo not given) | 10 |

Tested on: Pseudomonas aeruginosa
Experiment: Antimicrobial activity against Pseudomonas aeruginosa MTCC 1688 at 750 ug/ml after 24 hrs by cup plate method
Type: functional
Conditions: MTCC 1688, 24 h, read-out: IZ

| Structure (SMILES) | zone of inhibition at 750 µg/mL [mm] |
| --- | --- |
| Cc1ccc2[nH]c(-c3ccccc3)c(C3C=C(c4ccc(Cl)cc4)Oc4nc[nH]c(=O)c43)c2c1 (stereo not given) | 4 |

Tested on: Aspergillus oryzae
Experiment: Antimicrobial activity against Aspergillus oryzae MTCC 3567 at 750 ug/ml after 72 hrs by cup plate method
Type: functional
Conditions: MTCC 3567, 72 h, read-out: IZ

| Structure (SMILES) | zone of inhibition at 750 µg/mL [mm] |
| --- | --- |
| Cc1ccc2[nH]c(-c3ccccc3)c(C3C=C(c4ccc(Cl)cc4)Oc4nc[nH]c(=O)c43)c2c1 (stereo not given) | 8 |

Tested on: Escherichia coli
Experiment: Antimicrobial activity against Escherichia coli MTCC 723 at 500 ug/ml after 24 hrs by cup plate method
Type: functional
Conditions: MTCC 723, 24 h, read-out: IZ

| Structure (SMILES) | zone of inhibition at 500 µg/mL [mm] |
| --- | --- |
| Cc1ccc2[nH]c(-c3ccccc3)c(C3C=C(c4ccc(Cl)cc4)Oc4nc[nH]c(=O)c43)c2c1 (stereo not given) | 8 |

Tested on: Escherichia coli
Experiment: Antimicrobial activity against Escherichia coli MTCC 723 at 1000 ug/ml after 24 hrs by cup plate method
Type: functional
Conditions: MTCC 723, 24 h, read-out: IZ

| Structure (SMILES) | zone of inhibition at 1000 µg/mL [mm] |
| --- | --- |
| Cc1ccc2[nH]c(-c3ccccc3)c(C3C=C(c4ccc(Cl)cc4)Oc4nc[nH]c(=O)c43)c2c1 (stereo not given) | 8 |

Tested on: Staphylococcus aureus
Experiment: Antimicrobial activity against Staphylococcus aureus ATCC 29513 at 1000 ug/ml after 24 hrs by cup plate method
Type: functional
Conditions: ATCC 29513, 24 h, read-out: IZ

| Structure (SMILES) | zone of inhibition at 1000 µg/mL [mm] |
| --- | --- |
| Cc1ccc2[nH]c(-c3ccccc3)c(C3C=C(c4ccc(Cl)cc4)Oc4nc[nH]c(=O)c43)c2c1 (stereo not given) | 10 |

Tested on: Aspergillus terreus
Experiment: Antimicrobial activity against Aspergillus terreus MTCC 1782 at 1000 ug/ml after 72 hrs by cup plate method
Type: functional
Conditions: MTCC 1782, 72 h, read-out: IZ

| Structure (SMILES) | zone of inhibition at 1000 µg/mL [mm] |
| --- | --- |
| Cc1ccc2[nH]c(-c3ccccc3)c(C3C=C(c4ccc(Cl)cc4)Oc4nc[nH]c(=O)c43)c2c1 (stereo not given) | 6 |

Tested on: Klebsiella pneumoniae
Experiment: Antimicrobial activity against Klebsiella pneumoniae NCTC 13368 at 1000 ug/ml after 24 hrs by cup plate method
Type: functional
Conditions: NCTC 13368, 24 h, read-out: IZ

| Structure (SMILES) | zone of inhibition at 1000 µg/mL [mm] |
| --- | --- |
| Cc1ccc2[nH]c(-c3ccccc3)c(C3C=C(c4ccc(Cl)cc4)Oc4nc[nH]c(=O)c43)c2c1 (stereo not given) | 5 |

Tested on: Aspergillus flavus
Experiment: Antimicrobial activity against Aspergillus flavus MTCC 1973 at 750 ug/ml after 72 hrs by cup plate method
Type: functional
Conditions: MTCC 1973, 72 h, read-out: IZ

| Structure (SMILES) | zone of inhibition at 750 µg/mL [mm] |
| --- | --- |
| Cc1ccc2[nH]c(-c3ccccc3)c(C3C=C(c4ccc(Cl)cc4)Oc4nc[nH]c(=O)c43)c2c1 (stereo not given) | 5 |

Tested on: Aspergillus terreus
Experiment: Antimicrobial activity against Aspergillus terreus MTCC 1782 at 500 ug/ml after 72 hrs by cup plate method
Type: functional
Conditions: MTCC 1782, 72 h, read-out: IZ

| Structure (SMILES) | zone of inhibition at 500 µg/mL [mm] |
| --- | --- |
| Cc1ccc2[nH]c(-c3ccccc3)c(C3C=C(c4ccc(Cl)cc4)Oc4nc[nH]c(=O)c43)c2c1 (stereo not given) | 6 |

Tested on: Aspergillus oryzae
Experiment: Antimicrobial activity against Aspergillus oryzae MTCC 3567 at 500 ug/ml after 72 hrs by cup plate method
Type: functional
Conditions: MTCC 3567, 72 h, read-out: IZ

| Structure (SMILES) | zone of inhibition at 500 µg/mL [mm] |
| --- | --- |
| Cc1ccc2[nH]c(-c3ccccc3)c(C3C=C(c4ccc(Cl)cc4)Oc4nc[nH]c(=O)c43)c2c1 (stereo not given) | 8 |

Tested on: Aspergillus flavus
Experiment: Antimicrobial activity against Aspergillus flavus MTCC 1973 at 500 ug/ml after 72 hrs by cup plate method
Type: functional
Conditions: MTCC 1973, 72 h, read-out: IZ

| Structure (SMILES) | zone of inhibition at 500 µg/mL [mm] |
| --- | --- |
| Cc1ccc2[nH]c(-c3ccccc3)c(C3C=C(c4ccc(Cl)cc4)Oc4nc[nH]c(=O)c43)c2c1 (stereo not given) | 5 |

Tested on: Pseudomonas aeruginosa
Experiment: Antimicrobial activity against Pseudomonas aeruginosa MTCC 1688 at 1000 ug/ml after 24 hrs by cup plate method
Type: functional
Conditions: MTCC 1688, 24 h, read-out: IZ

| Structure (SMILES) | zone of inhibition at 1000 µg/mL [mm] |
| --- | --- |
| Cc1ccc2[nH]c(-c3ccccc3)c(C3C=C(c4ccc(Cl)cc4)Oc4nc[nH]c(=O)c43)c2c1 (stereo not given) | 4 |

Tested on: Klebsiella pneumoniae
Experiment: Antimicrobial activity against Klebsiella pneumoniae NCTC 13368 at 500 ug/ml after 24 hrs by cup plate method
Type: functional
Conditions: NCTC 13368, 24 h, read-out: IZ

| Structure (SMILES) | zone of inhibition at 500 µg/mL [mm] |
| --- | --- |
| Cc1ccc2[nH]c(-c3ccccc3)c(C3C=C(c4ccc(Cl)cc4)Oc4nc[nH]c(=O)c43)c2c1 (stereo not given) | 5 |

Tested on: Pseudomonas aeruginosa
Experiment: Antimicrobial activity against Pseudomonas aeruginosa MTCC 1688 at 500 ug/ml after 24 hrs by cup plate method
Type: functional
Conditions: MTCC 1688, 24 h, read-out: IZ

| Structure (SMILES) | zone of inhibition at 500 µg/mL [mm] |
| --- | --- |
| Cc1ccc2[nH]c(-c3ccccc3)c(C3C=C(c4ccc(Cl)cc4)Oc4nc[nH]c(=O)c43)c2c1 (stereo not given) | 4 |

Tested on: Staphylococcus aureus
Experiment: Antimicrobial activity against Staphylococcus aureus ATCC 29513 at 500 ug/ml after 24 hrs by cup plate method
Type: functional
Conditions: ATCC 29513, 24 h, read-out: IZ

| Structure (SMILES) | zone of inhibition at 500 µg/mL [mm] |
| --- | --- |
| Cc1ccc2[nH]c(-c3ccccc3)c(C3C=C(c4ccc(Cl)cc4)Oc4nc[nH]c(=O)c43)c2c1 (stereo not given) | 10 |

Tested on: Aspergillus oryzae
Experiment: Antimicrobial activity against Aspergillus oryzae MTCC 3567 at 1000 ug/ml after 72 hrs by cup plate method
Type: functional
Conditions: MTCC 3567, 72 h, read-out: IZ

| Structure (SMILES) | zone of inhibition at 1000 µg/mL [mm] |
| --- | --- |
| Cc1ccc2[nH]c(-c3ccccc3)c(C3C=C(c4ccc(Cl)cc4)Oc4nc[nH]c(=O)c43)c2c1 (stereo not given) | 8 |
